Results from the supplement of paper PMC10307832.

How the values were obtained:
Assay in all cases: relative viability (nuclei count vs DMSO), 5 days (fraction); higher = more cells survive
Carfilzomib + Foretinib = compound: CC(C)C[C@H](NC(=O)[C@H](CCc1ccccc1)NC(=O)CN1CCOCC1)C(=O)N[C@@H](Cc1ccccc1)C(=O)N[C@@H](CC(C)C)C(=O)[C@@]1(C)CO1 [Carfilzomib] + COc1cc2c(Oc3ccc(NC(=O)C4(C(=O)Nc5ccc(F)cc5)CC4)cc3F)ccnc2cc1OCCCN1CCOCC1 [Foretinib] (partner 0.25 µM)
Method in brief: (§1)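 For relative viability, nuclei counts in treated wells were divided by those in vehicle wells. Lung cancer cell lines had been pin-tool dosed in 1536-well plates the day after seeding and cultured for 5 days, then fixed and stained in one step (final 0.05% Triton X-100, 1% formaldehyde, 1 ug/ml Hoechst) and imaged at 4×. Doses were one drug alone or a fixed anchor-drug dose plus five library-drug doses (not always all listed) in √10 steps, and values are duplicate-plate medians.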

Crizotinib + Trametinib = compound: C[C@@H](Oc1cc(-c2cnn(C3CCNCC3)c2)cnc1N)c1c(Cl)ccc(F)c1Cl [Crizotinib] + CC(=O)Nc1cccc(-n2c(=O)n(C3CC3)c(=O)c3c(Nc4ccc(I)cc4F)n(C)c(=O)c(C)c32)c1 [Trametinib] (partner 0.02 µM)
Method in brief: as §1

Crizotinib + Luminespib = compound: C[C@@H](Oc1cc(-c2cnn(C3CCNCC3)c2)cnc1N)c1c(Cl)ccc(F)c1Cl [Crizotinib] + CCNC(=O)c1noc(-c2cc(C(C)C)c(O)cc2O)c1-c1ccc(CN2CCOCC2)cc1 [Luminespib] (partner 0.01 µM)
Method in brief: as §1

Crizotinib + AZD7762 = compound: C[C@@H](Oc1cc(-c2cnn(C3CCNCC3)c2)cnc1N)c1c(Cl)ccc(F)c1Cl [Crizotinib] + NC(=O)Nc1cc(-c2cccc(F)c2)sc1C(=O)N[C@H]1CCCNC1 [AZD7762] (partner 0.2 µM)
Method in brief: as §1

| Cell Line | relative viability (Carfilzomib + Foretinib; first compound 0.001 µM) | relative viability (Carfilzomib + Foretinib; first compound 0.003162 µM) | relative viability (Carfilzomib + Foretinib; first compound 0.01 µM) | relative viability (Carfilzomib + Foretinib; first compound 0.03162 µM) | relative viability (Carfilzomib + Foretinib; first compound 0.1 µM) | relative viability (Crizotinib + Trametinib; first compound 0.01 µM) | relative viability (Crizotinib + Trametinib; first compound 0.03162 µM) | relative viability (Crizotinib + Trametinib; first compound 0.1 µM) | relative viability (Crizotinib + Trametinib; first compound 0.3162 µM) | relative viability (Crizotinib + Trametinib; first compound 1 µM) | relative viability (Crizotinib + Luminespib; first compound 0.01 µM) | relative viability (Crizotinib + Luminespib; first compound 0.03162 µM) | relative viability (Crizotinib + Luminespib; first compound 0.1 µM) | relative viability (Crizotinib + Luminespib; first compound 0.3162 µM) | relative viability (Crizotinib + Luminespib; first compound 1 µM) | relative viability (Crizotinib + AZD7762; first compound 0.01 µM) | relative viability (Crizotinib + AZD7762; first compound 0.03162 µM) | relative viability (Crizotinib + AZD7762; first compound 0.1 µM) | relative viability (Crizotinib + AZD7762; first compound 0.3162 µM) | relative viability (Crizotinib + AZD7762; first compound 1 µM) |
| --- | --- | --- | --- | --- | --- | --- | --- | --- | --- | --- | --- | --- | --- | --- | --- | --- | --- | --- | --- | --- |
| HCC-827 | 1.09 | 1.06 | 1.08 | 0.928 | 0.387 | 0.462 | 0.567 | 0.53 | 0.508 | 0.552 | 0.542 | 0.651 | 0.784 | 0.52 | 0.646 | 0.236 | 0.201 | 0.184 | 0.174 | 0.217 |
| HOP-62 | 1.12 | 1.13 | 0.938 | 0.328 | 0.0784 | 0.353 | 0.369 | 0.358 | 0.407 | 0.392 | 0.915 | 0.789 | 0.995 | 0.855 | 0.902 | 0.447 | 0.508 | 0.622 | 0.565 | 0.633 |
| IA-LM | 1.22 | 1.23 | 0.899 | 0.0144 | 0.0167 | – | – | – | – | – | – | – | – | – | – | – | – | – | – | – |
| LC-2-ad | 0.881 | 1.01 | 1.08 | 0.903 | 0.221 | 0.899 | 0.985 | – | – | 0.892 | 0.953 | 0.943 | 1.09 | 0.942 | 0.91 | 0.779 | 0.854 | 0.846 | – | 0.853 |
| LCLC-97TM1 | 0.958 | 0.874 | 0.893 | 0.529 | 0.25 | 0.189 | 0.173 | 0.209 | 0.173 | 0.196 | 0.723 | 0.796 | 0.67 | 0.714 | 0.799 | 0.193 | 0.138 | 0.252 | 0.104 | 0.339 |
| LCLC-103H | 0.772 | 0.714 | 0.814 | 0.646 | 0.225 | 0.644 | 0.646 | 0.662 | 0.686 | 0.642 | 0.856 | 0.987 | 0.856 | – | 1.02 | 0.798 | 0.78 | 0.877 | 0.839 | 0.804 |
| NCI-H520 | 0.781 | 0.999 | 0.695 | 0.17 | 0.203 | 0.603 | 0.744 | 0.767 | 0.568 | 0.668 | 0.212 | 0.258 | 0.243 | 0.258 | 0.231 | – | – | – | – | – |
| NCI-H522 | – | – | – | – | – | 0.619 | 0.689 | 0.799 | 0.703 | 0.8 | 1.05 | 1.06 | 1.05 | 1.15 | 1.08 | 0.852 | 0.792 | 0.752 | 0.908 | 0.846 |
| NCI-H661 | 1.05 | 1.16 | 1.07 | 1.06 | 0.377 | 0.536 | 0.563 | 0.536 | 0.61 | 0.549 | 0.832 | 0.92 | 0.892 | – | 0.908 | – | – | – | – | – |
| NCI-H1299 | 1.03 | 1.02 | 1.14 | 0.597 | 0.117 | – | – | – | – | – | – | – | – | – | – | – | – | – | – | – |
| NCI-H1563 | 0.927 | 1.08 | 0.968 | 0.828 | 0.517 | – | – | – | – | – | 0.528 | 0.505 | 0.49 | 0.566 | 0.534 | – | – | – | – | – |
| NCI-H1623 | 0.838 | 0.906 | 1.14 | 0.455 | 0.514 | – | – | – | – | – | – | 0.469 | 0.502 | 0.486 | 0.5 | – | – | – | – | – |
| NCI-H1648 | – | – | – | – | – | – | 0.462 | 0.539 | 0.483 | 0.463 | – | – | – | – | – | – | 0.513 | 0.684 | 0.467 | 0.723 |
| NCI-H1650 | 1.22 | 0.965 | 0.954 | 0.125 | 0.321 | 0.548 | 0.605 | 0.607 | 0.559 | 0.58 | 0.165 | 0.193 | 0.202 | 0.18 | 0.206 | – | – | – | – | – |
| NCI-H1703 | – | 0.421 | 0.231 | 0.126 | 0.154 | – | – | – | – | – | – | – | – | – | – | 0.157 | 0.172 | 0.126 | 0.116 | 0.125 |
| NCI-H1792 | – | – | – | – | – | 0.492 | 0.526 | 0.365 | – | 0.453 | 0.46 | 0.39 | 0.529 | – | 0.553 | 0.634 | 0.881 | 0.626 | – | 0.63 |
| NCI-H2009 | 1.25 | 1.26 | 1.21 | 0.355 | 0.0701 | 0.268 | 0.277 | 0.26 | 0.217 | 0.301 | 0.994 | 1.02 | 0.988 | 1.01 | 1.08 | – | – | – | – | – |
| NCI-H2023 | 0.957 | 0.896 | 0.894 | 0.948 | 0.0777 | 0.487 | 0.489 | 0.484 | 0.343 | 0.468 | 0.714 | 0.754 | 0.61 | 0.58 | 0.592 | – | – | – | – | – |
| NCI-H2228 | 0.902 | 0.883 | 0.633 | 0.0979 | 0.096 | 0.415 | 0.492 | 0.648 | 0.3 | 0.521 | 0.119 | 0.16 | 0.132 | 0.122 | 0.119 | – | – | – | – | – |
| SK-LU-1 | 0.838 | 0.857 | 0.919 | 0.116 | 0.124 | 0.455 | 0.396 | 0.539 | 0.457 | 0.512 | 0.208 | 0.195 | 0.225 | 0.224 | 0.206 | – | – | – | – | – |
| SK-MES-1 | 0.851 | 0.954 | 0.918 | 0.97 | 0.283 | 0.511 | 0.561 | 0.54 | 0.621 | 0.57 | 0.669 | 0.827 | 0.771 | 0.712 | 0.76 | – | – | – | – | – |
| SW 1573 | 0.934 | 1.27 | 0.884 | 0.725 | 0.0812 | 0.531 | 0.473 | 0.594 | 0.567 | 0.615 | 0.132 | 0.342 | 0.253 | 0.405 | 0.236 | – | – | – | – | – |
| UMC-11 | 0.996 | 1.05 | 1.06 | 0.944 | 0.299 | 0.7 | 0.751 | 0.683 | 0.227 | 0.985 | 0.898 | 1.1 | 0.885 | 0.965 | 1.12 | – | – | – | – | – |
